Read-outs that look alike come from different tables or passages of the source. Where no end group is shown, it is not given here.
Columns and labels:
[1] = test system: sheep erythrocytes; assay: Hemolysis assay; assay type: cell-based; settings: sheep erythrocytes in PBS, 37°C 18–24 hours, absorbance 567 nm
[2] = test system: Bacilius subtilis; settings: cited from earlier work
[3] = test system: S.aureus; settings: cited from earlier work
[4] = test system: Fungus; settings: cited from earlier work
[5] = test system: E.coli; settings: cited from earlier work
[6] = test system: gram-negative bacteria, mostly E.coli and P. aeruginosa; settings: range stated jointly; ref Table 5.0 ([28], [30]–[32]); cited from earlier work
[7] = test system: P.aeruginosa; settings: cited from earlier work
[8] = test system: R. solani Khun; settings: against R. solani Khun; ref [34]; cited from earlier work

CC[C@H](C)[C@H](NC(=O)CN)C(=O)NCC(=O)N[C@@H](C)C(=O)N[C@H](C(=O)N[C@@H](CC(C)C)C(=O)N[C@@H](CCCCN)C(=O)N[C@H](C(=O)N[C@@H](CC(C)C)C(=O)N[C@H](C(=O)N[C@H](C(=O)NCC(=O)N[C@@H](CC(C)C)C(=O)N1CCC[C@H]1C(=O)N[C@@H](C)C(=O)N[C@@H](CC(C)C)C(=O)N[C@H](C(=O)N[C@@H](CO)C(=O)N[C@@H](Cc1c[nH]c2ccccc12)C(=O)N[C@H](C(=O)N[C@@H](CCCCN)C(=O)N[C@@H](CCCNC(=N)N)C(=O)N[C@@H](CCCCN)C(=O)N[C@@H](CCCNC(=N)N)C(=O)N[C@@H](CCC(N)=O)C(=O)N[C@@H](CCC(N)=O)C(N)=O)[C@@H](C)CC)[C@@H](C)CC)[C@@H](C)O)[C@@H](C)O)C(C)C)C(C)C [Melittin]
concentration at which RBCs are lysed [1]: ≥ 12500 ng/mL

Bactrocerin-1
MIC values Bacilius subtilis ([2]; ref [37]): 13.0 µg/mL | MIC values S.aureus ([3]; ref [37]): 6.5 µg/mL | MIC values Fungus ([4]; ref [37]): 26.0 to 104.7 µg/mL | MIC values E.coli ([5]; ref [37]): >232.5 µg/mL

Cecropin A (KWKLFKKIEKVGQNIRDGIIKAGPAVAVVGQATQIAK; ends and bridges not checked; UniProt P01507 27-63, looked up)
MIC range against different strains of gram-negative bacteria [6]: 2 to 20 µg/mL | MIC values P.aeruginosa ([7]; ref [28]): 2.5 µg/mL | MIC values E.coli ([5]; ref [28]): 2.5 µg/mL

Cecropin B (KWKVFKKIEKMGRNIRNGIVKAGPAIAVLGEAKAL; ends and bridges not checked; UniProt P01508 27-61, looked up)
MIC range against different strains of gram-negative bacteria [6]: 2 to 20 µg/mL | MIC values P.aeruginosa ([7]; ref [28]): 2.5 µg/mL | MIC values P.aeruginosa ([7]; ref [30]): >100 µg/mL | MIC values S.aureus ([3]; ref [31]): >128 µg/mL | MIC values E.coli ([5]; ref [28]): 2.5 µg/mL | MIC values E.coli ([5]; ref [30]): 2 µg/mL | MIC values E.coli ([5]; ref [31]): 16 µg/mL

Cecropin P1
MIC range against different strains of gram-negative bacteria [6]: 2 to 20 µg/mL | MIC values P.aeruginosa ([7]; ref [32]): 4 to 64 µg/mL | MIC values E.coli ([5]; ref [32]): 0.12 to 4 µg/mL

Galleria defensin
MIC values Fungus ([4]; ref [38]): 14.7 to 29.5 µg/mL

Oh-defensin
MIC values S.aureus ([3]; ref [39]): 1.25 µg/mL | MIC values Fungus ([4]; ref [39]): 1.3 µg/mL | MIC values E.coli ([5]; ref [39]): 1.3 µg/mL

Sapecin
MIC values Bacilius subtilis ([2]; ref [36]): 20 to 39 µg/mL | MIC values S.aureus ([3]; ref [36]): 5.0 µg/mL | MIC values E.coli ([5]; ref [36]): >78.0 µg/mL

Trx-stomoxynZH1
MIC values Fungus [8]: > 98 against R. solani Khun μg/ml | MIC values S.aureus ([3]; ref [34]): 27 to 54 µg/mL | MIC values E.coli ([5]; ref [34]): 15 to 30 µg/mL

Reference: PMC5913751 (Peptides, 2018)
